Earlier results in patent US20060240013A1, “Diagnostics and therapeutics for diseases associated with bile acid g-protein-coupled receptor 37 (bg37)” (BAYER HEALTHCARE AG, priority 2002, published 2006).

Target: T1, BG37 receptor (Homo sapiens, UniProt Q8TDU6)
T1 sequence (Q8TDU6 1-330): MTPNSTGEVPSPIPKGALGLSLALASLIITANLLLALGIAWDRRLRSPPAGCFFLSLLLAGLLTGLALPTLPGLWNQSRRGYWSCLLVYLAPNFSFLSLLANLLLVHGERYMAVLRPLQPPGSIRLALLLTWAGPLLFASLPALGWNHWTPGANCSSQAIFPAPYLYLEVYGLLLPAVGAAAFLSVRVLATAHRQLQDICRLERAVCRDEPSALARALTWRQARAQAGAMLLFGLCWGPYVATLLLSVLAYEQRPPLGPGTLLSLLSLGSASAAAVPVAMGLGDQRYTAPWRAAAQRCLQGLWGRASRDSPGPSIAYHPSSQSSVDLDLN
Details: intracellular cAMP levels modulated through BG37 receptor; Maruyama et al. (2002)

Row | SMILES | rank order of potency of bile acids
1 | C[C@H](CCC(=O)O)[C@H]1CC[C@H]2[C@@H]3[C@H](O)C[C@@H]4C[C@H](O)CC[C@]4(C)[C@H]3CC[C@]12C [chenodeoxycholic acid] | lithocholic acid>deoxycholic acid>chenodeoxycholic acid>cholic acid
2 | C[C@H](CCC(=O)O)[C@H]1CC[C@H]2[C@@H]3[C@H](O)C[C@@H]4C[C@H](O)CC[C@]4(C)[C@H]3C[C@H](O)[C@]12C [cholic acid] | lithocholic acid>deoxycholic acid>chenodeoxycholic acid>cholic acid
